# Values joined by “and” are separate entries in the source; they are usually repeats but may differ in a detail not shown here. Equal values may be shown once.
# Assays:
# [1] = tested on: A-431 human skin cancer heteroxenografts; experiment: Anti-tumoral activity on A-431 heteroxenografts (tumor volume, T/C, histology); format: in vivo, mouse
# Experimental: Before administration, SkQ1 was diluted with sterile physiological saline up to 0.5 μM and 5.0 μM. The preparation was injected intraperitoneally as single doses of 5.0 nM/kg and 50.0 nM/kg, 0.2 ml/mouse.
# (1973) 51:1417-1423. • Morphology: epithelial. • Cultivation method: monolayer. • Cultivation conditions: 10% bovine embryonal serum DMEM culture. • Procedure of seeding: cell removal using 0.25% trypsin, 0.02% versene (3:7), ratio of seeding 1:3 1:6, optimal density 2.04.0×10^4 cell per sm^2 cryopreservation media, 10% DMSO, 1.0×10^6 cells/ml per ampoule. • Viability after cryopreservation: 83% (trypan blue staining on zero passage) • Contamination control: no bacteria, fungi or micoplasma detected • Genetic identity control: karyological, enzymatic (LDH, G6PDH) analysis. • Karyology: 2n-46, chromosome variability limit 5777, chromosome modal number 6871 • Tumorigenicity: tumorigenic in HIV mice and in mice treated with antithymocyte serum. • Other features: large number of receptors to epidermal growth factor. • Application area: growth factors study, cell biology. • Collection: ATCC CRL 1555; ECACC 85090402; INC RAS.
# A-431 cells were grown on RPMI-1640 medium that contained 10% calf serum and 1 mM glutamine. Cells were transferred to a flask at a ratio of 1:2 or 1:3 from full monolayer. The medium was changed every 2 to 3 days. A cultivated cell suspension was then used to engraft HIV mice.
# The experiment was performed using HIV female mice Balb/c nude at the age 8 to 9.5 weeks. All mice were raised in GU RONC. Mice were managed in specialized virus-free chamber with sterile aeration, fed with sterile briquette food and water under normalized temperature condition and moisture.
# Cells of A-431 cell line were hypodermically implanted only once in number 1.7-1×10^6 per mouse in 0.2 ml of RPMI-1640 nutrition medium.
# Anti-tumoral effect estimation was carried out using common rate T/C (Treatment/Control), evaluated as a ratio of average tumor volumes in treated and control groups given in percents. Rate was taken evaluated using the following formula T/C %=[…],
# where Vo and Vk are the mean volumes of tumor in treated and control groups thereof. Thus, in the control group, T/C=100%. Mean volume was evaluated using the following formula: Vm (mm^3)=axbxc. T/C≦42% was taken as a minimal efficiency criterion (Anticancer Drug Development Guide (1997) (ed. B. A. Teicher) Humana Press, Totowa, N.J., pp. 101-125). To analyze the speed of growth (standarcy value), a ratio of mean tumor relative to the first one taken was determined as follows.
# Evaluation started after the appearance of a palpable tumor (9 days after implantation). After that multiple tumor volume evaluations were performed until the 20th day after transplantation. The first evaluation of treated groups was performed during treatment, and the next three evaluations were performed during 6 days after end of the treatment. Tumor evaluations were stopped on the 21st to the 24th day after the first mouse died in three experiments.
# Mice were sacrificed by ether anesthesia overdose. An autopsy was performed, and tumors were then extracted and assayed histologically and immunohistochemically. Tumors were fixed in 10% formaldehyde and set into paraffin wax. Histological assays were carried out on tumor histological sections, stained with hematoxylin and eosin. The number of microvessels was examined by standard immunological method using antibodies to CD34 antigen. Presence of vessel mimicry was estimated by tumor section staining with Schiffs reagent.
# [2] = Mouse life-span when managed in a chamber without sterile aeration; format: in vivo; settings: SkQ1 added to drinking water
# Lung Lewis's carcinoma = experiment: SkQ1 combined with doxorubicin on growth of lung Lewis's carcinoma; format: in vivo, mouse; settings: regime per group
# Experimental: For development of oncological diseases joint therapy that combines SkQ1 and chemotherapy, a study on SkQ1 influence on single doxorubicin injection efficiency was performed (one of the mechanisms of the preparation is activation of oxidative processes in normal and cancerous cells). SkQ1 was introduced before, simultaneously, or after introduction of doxorubicin in maximum dose of 500 nM/kg (in order to block oxidative mechanism of doxorubicin influence).
# Doxorubicin was applied before, after, and during the course of SkQ1.
# [3] = Experiment 1 material, Group 2, 5.0 nM/kg
smiles,measurement,setting,value
CC1=C(C)C(=O)C(CCCCCCCCCC[P+](c2ccccc2)(c2ccccc2)c2ccccc2)=CC1=O [SkQ1],T/C,"[1]; Experiment 1, 5.0 nM/kg ip daily day 1-14, 14th day",74%
same,T/C,"[1]; Experiment 1, 5.0 nM/kg ip daily day 1-14, 17th day",67%
same,T/C,"[1]; Experiment 1, 5.0 nM/kg ip daily day 1-14, 20th day",73%
same,T/C,"[1]; Experiment 1, 5.0 nM/kg ip daily, 9th day (after 8 injections)",63%
same,T/C,"[1]; Experiment 1, 50.0 nM/kg ip daily day 1-14, 9th day",159%
same,T/C,"[1]; Experiment 1, 50.0 nM/kg ip daily day 1-14, 14th day",160%
same,T/C,"[1]; Experiment 1, 50.0 nM/kg ip daily day 1-14, 17th day",134%
same,T/C,"[1]; Experiment 1, 50.0 nM/kg ip daily day 1-14, 20th day",146%
same,Tumor differentiation (histological assay),"[1]; Experiment 1 material, 5.0 nM/kg, vs control",partial tumor differentiation
same,"Number of microvessels in tumors (CD34, hot spots)","[1]; Experiment 1 material, 23rd day, 9th day after end of treatment, three groups (control, 5.0 and 50.0 nM/kg)",did not statistically differ
same,Microvessel diameter,[1]; [3],smaller diameter than in the control group
same,Signs of vasculogenic mimicry (PAS staining),[1]; [3],no such signs were seen
same,T/C,"[1]; Experiment 2, 5.0 nM/kg ip daily day 1-8, 8th day",61%
same,T/C,"[1]; Experiment 2, 5.0 nM/kg ip daily day 1-8, 14th day",72%
same,T/C,"[1]; Experiment 2, 5.0 nM/kg ip daily day 1-8, 17th day",96%
same,T/C,"[1]; Experiment 2, 5.0 nM/kg ip daily day 1-8, 24th day",101%
same,T/C,"[1]; Experiment 3, 5.0 nM/kg ip daily day 1-14, immediately after the end of the treatment",41% and 42%
same,inhibition of growth,"[1]; long-termed injection, single doses 5.0 nM/kg, in some cases",50%
same,Immunity to infectious diseases (by mouse life-span),[2],increased HIV mice immunity to infectious diseases
same,"TGS %, by tumor volume","Lung Lewis's carcinoma; Day 7, SkQ 500 nmol 0.2 ml/mouse per os x5, DOX 7 mg/kg ip",33%
same,"TGS %, by tumor volume","Lung Lewis's carcinoma; Day 7, SkQ 500 nmol 0.2 ml/mouse per os x5, DOX 7 mg/kg ip, listed as SkQ",33^ %
same,"TGS %, by tumor volume",Lung Lewis's carcinoma; Day 10,42%
same,"TGS %, by tumor volume",Lung Lewis's carcinoma; Day 14,48%
same,"TGS %, by tumor volume",Lung Lewis's carcinoma; Day 17,28%
same,"TGS %, by tumor volume",Lung Lewis's carcinoma; Day 21,30%

# From patent US9408859B2, “Pharmaceutical compositions useful for preventing and treating cancer” (Mitotech SA, priority 2007, dated 2016)
